Several values for one entry are separate records, joined by “and”; a condition that tells them apart may be missing. Identical values can stand only once. Inconclusive results and toxic doses are left out.
Tested on: BDF1 mice, B16 melanoma ip, median survival T/C
Assay: NCI In Vivo Anticancer Drug Screen. Data for tumor model B16 Melanoma (intraperitoneal) in B6D2F1 (BDF1) mice
Conditions: endpoint: median survival time, higher = longer survival
How it was run: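 Compounds were tested in mice carrying transplantable tumors. Survival or tumor size was recorded, and each value is the treated-group measurement (T) divided by that of the vehicle-treated control group (C).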

[1] = dose: 50.0 mg/kg/injection, schedule: Q01DX009 (ip), vehicle: saline with Tween-80
[2] = dose: 100.0 mg/kg/injection, schedule: Q01DX009 (ip), vehicle: saline with Tween-80
[3] = dose: 200.0 mg/kg/injection, schedule: Q01DX009 (ip), vehicle: saline with Tween-80
[4] = dose: 50.0 mg/kg/injection, schedule: Q04DX003 (ip), vehicle: saline with Tween-80
[5] = dose: 100.0 mg/kg/injection, schedule: Q04DX003 (ip), vehicle: saline with Tween-80
[6] = dose: 200.0 mg/kg/injection, schedule: Q04DX003 (ip), vehicle: saline with Tween-80
[7] = dose: 12.5 mg/kg/injection, schedule: Q01DX009 (ip), vehicle: saline
[8] = dose: 25.0 mg/kg/injection, schedule: Q01DX009 (ip), vehicle: saline with Tween-80
[9] = dose: 25.0 mg/kg/injection, schedule: Q01DX009 (ip), vehicle: saline
[10] = dose: 50.0 mg/kg/injection, schedule: Q01DX009 (ip), vehicle: saline
[11] = dose: 100.0 mg/kg/injection, schedule: Q01DX009 (ip), vehicle: saline
[12] = dose: 100.0 mg/kg/injection, schedule: Q04DX003 (ip), vehicle: saline
[13] = dose: 200.0 mg/kg/injection, schedule: Q04DX003 (ip), vehicle: saline
[14] = dose: 100.0 mg/kg/injection, schedule: Q01DX009 (ip), vehicle: Klucel (hydroxypropylcellulose) (HPC)
[15] = dose: 200.0 mg/kg/injection, schedule: Q01DX009 (ip), vehicle: Klucel (hydroxypropylcellulose) (HPC)
[16] = dose: 25.0 mg/kg/injection, schedule: Q01DX009 (ip), vehicle: Klucel (hydroxypropylcellulose) (HPC)
[17] = dose: 400.0 mg/kg/injection, schedule: Q01DX009 (ip), vehicle: Klucel (hydroxypropylcellulose) (HPC)

CC(NC(=O)CN(C)C(=O)OCc1ccccc1)C(=O)O (centres undefined)
T/C [1]: 99 % of control | T/C [2]: 98 % of control | T/C [3]: 97 % of control

O=C(O)/C(Br)=C/c1ccccc1
T/C [4]: 107 % of control | T/C [5]: 112 % of control | T/C [6]: 102 % of control

O=c1ccn(C2OC(CO)C(O)C2O)c(=O)[nH]1 (centres undefined)
T/C (dose: 16.0 mg/kg/injection, schedule: Q01DX009 (ip), vehicle: saline): 100 % of control | T/C (dose: 32.0 mg/kg/injection, schedule: Q01DX009 (ip), vehicle: Klucel (hydroxypropylcellulose) (HPC)): 98 % of control and 104 % of control | T/C (dose: 32.0 mg/kg/injection, schedule: Q01DX009 (ip), vehicle: saline): 96 % of control and 101 % of control | T/C (dose: 64.0 mg/kg/injection, schedule: Q01DX009 (ip), vehicle: Klucel (hydroxypropylcellulose) (HPC)): 99 % of control and 101 % of control | T/C (dose: 64.0 mg/kg/injection, schedule: Q01DX009 (ip), vehicle: saline): 93 % of control and 98 % of control | T/C (dose: 128.0 mg/kg/injection, schedule: Q01DX009 (ip), vehicle: Klucel (hydroxypropylcellulose) (HPC)): 103 % of control | T/C (dose: 128.0 mg/kg/injection, schedule: Q01DX009 (ip), vehicle: saline): 101 % of control and 114 % of control | T/C (dose: 256.0 mg/kg/injection, schedule: Q01DX009 (ip), vehicle: Klucel (hydroxypropylcellulose) (HPC)): 97 % of control and 103 % of control | T/C (dose: 256.0 mg/kg/injection, schedule: Q01DX009 (ip), vehicle: saline): 100 % of control and 110 % of control | T/C (dose: 512.0 mg/kg/injection, schedule: Q01DX009 (ip), vehicle: Klucel (hydroxypropylcellulose) (HPC)): 102 % of control and 108 % of control | T/C (dose: 512.0 mg/kg/injection, schedule: Q01DX009 (ip), vehicle: saline): 105 % of control

CC(C)=CCNc1ncnc2c1ncn2C1OC(CO)C(O)C1O (centres undefined)
T/C (dose: 6.25 mg/kg/injection, schedule: Q01DX009 (ip), vehicle: saline with Tween-80): 102 % of control | T/C (dose: 6.25 mg/kg/injection, schedule: Q01DX009 (ip), vehicle: saline): 101 % of control | T/C (dose: 12.5 mg/kg/injection, schedule: Q01DX009 (ip), vehicle: saline with Tween-80): 103 % of control | T/C [7]: 96 % of control | T/C [8]: 87 % of control and 107 % of control | T/C [9]: 103 % of control | T/C [1]: 87 % of control and 98 % of control | T/C [10]: 93 % of control | T/C [2]: 97 % of control | T/C [11]: 115 % of control

CCN(CC)C(=O)c1cccnc1
T/C [7]: 109 % of control | T/C [9]: 123 % of control | T/C [10]: 107 % of control | T/C [11]: 103 % of control | T/C (dose: 200.0 mg/kg/injection, schedule: Q01DX009 (ip), vehicle: saline): 102 % of control

O=[N+]([O-])C(CO)(CO)CO
T/C [12]: 110 % of control | T/C [13]: 110 % of control | T/C (dose: 400.0 mg/kg/injection, schedule: Q04DX003 (ip), vehicle: saline): 96 % of control

CCCCCCCC(=O)CCC
T/C [14]: 105 % of control | T/C [15]: 96 % of control

COc1cc2c(cc1OC)C(c1ccc(O)c(O)c1)CNC2 (centres undefined)
T/C [4]: 99 % of control | T/C [5]: 89 % of control | T/C [6]: 90 % of control

Oc1ccc(SCc2ccc(NCc3ccccc3)cc2)cc1
T/C (dose: 12.5 mg/kg/injection, schedule: Q01DX009 (ip), vehicle: other): 92 % of control | T/C (dose: 12.5 mg/kg/injection, schedule: Q01DX009 (ip), vehicle: saline + alcohol): 105 % of control | T/C (dose: 25.0 mg/kg/injection, schedule: Q01DX009 (ip), vehicle: other): 97 % of control | T/C (dose: 25.0 mg/kg/injection, schedule: Q01DX009 (ip), vehicle: saline + alcohol): 103 % of control | T/C (dose: 50.0 mg/kg/injection, schedule: Q01DX009 (ip), vehicle: other): 102 % of control | T/C (dose: 50.0 mg/kg/injection, schedule: Q01DX009 (ip), vehicle: saline + alcohol): 99 % of control | T/C (dose: 100.0 mg/kg/injection, schedule: Q01DX009 (ip), vehicle: other): 104 % of control | T/C (dose: 100.0 mg/kg/injection, schedule: Q01DX009 (ip), vehicle: saline + alcohol): 107 % of control | T/C (dose: 200.0 mg/kg/injection, schedule: Q01DX009 (ip), vehicle: other): 102 % of control | T/C (dose: 200.0 mg/kg/injection, schedule: Q01DX009 (ip), vehicle: saline + alcohol): 103 % of control | T/C (dose: 400.0 mg/kg/injection, schedule: Q01DX009 (ip), vehicle: other): 96 % of control | T/C (dose: 400.0 mg/kg/injection, schedule: Q01DX009 (ip), vehicle: saline + alcohol): 99 % of control

NNCCc1ccccc1
T/C (dose: 3.12 mg/kg/injection, schedule: Q01DX009 (ip), vehicle: saline): 94 % of control | T/C [7]: 117 % of control | T/C [9]: 100 % of control | T/C [10]: 97 % of control

Cc1ccc(NCCN(C)C)c2c(=O)c3cc(O)ccc3sc12
T/C (dose: 3.0 mg/kg/injection, schedule: Q01DX009 (ip), vehicle: Klucel (hydroxypropylcellulose) (HPC)): 119 % of control | T/C (dose: 12.0 mg/kg/injection, schedule: Q01DX009 (ip), vehicle: Klucel (hydroxypropylcellulose) (HPC)): 157 % of control | T/C (dose: 24.0 mg/kg/injection, schedule: Q01DX009 (ip), vehicle: Klucel (hydroxypropylcellulose) (HPC)): 160 % of control | T/C [16]: 162 % of control

CC(C)(C)N1C(=O)N(C(C)(C)C)C1=O
T/C (dose: 75.0 mg/kg/injection, schedule: Q01DX009 (ip), vehicle: other): 102 % of control | T/C (dose: 150.0 mg/kg/injection, schedule: Q01DX009 (ip), vehicle: other): 105 % of control | T/C (dose: 300.0 mg/kg/injection, schedule: Q01DX009 (ip), vehicle: other): 102 % of control

O=C(O)c1ccccc1C(=O)Nc1ccc(Cl)cc1
T/C [2]: 105 % of control | T/C [3]: 94 % of control

CCN(CC)C1CC(O[C@H]2C[C@](O)(C(C)=O)Cc3c(O)c4c(c(O)c32)C(=O)c2c(OC)cccc2C4=O)OC(C)C1O (some centres undefined)
T/C (dose: 0.25 mg/kg/injection, schedule: Q01DX009 (ip), vehicle: water): 113 % of control | T/C (dose: 0.5 mg/kg/injection, schedule: Q01DX009 (ip), vehicle: water): 119 % of control

Cc1c(Cl)cccc1NC(=O)c1ccccc1Cl
T/C [14]: 100 % of control | T/C [15]: 93 % of control | T/C [17]: 94 % of control

CC(NC(=O)C(F)(F)F)C(=O)O (centres undefined)
T/C [12]: 100 % of control | T/C [13]: 86 % of control

C[N+](C)(C)CCOc1ccc(Cl)cc1
T/C (dose: 12.5 mg/kg/injection, schedule: Q04DX003 (ip), vehicle: Klucel (hydroxypropylcellulose) (HPC)): 105 % of control | T/C (dose: 25.0 mg/kg/injection, schedule: Q04DX003 (ip), vehicle: Klucel (hydroxypropylcellulose) (HPC)): 107 % of control | T/C (dose: 50.0 mg/kg/injection, schedule: Q04DX003 (ip), vehicle: Klucel (hydroxypropylcellulose) (HPC)): 107 % of control | T/C (dose: 100.0 mg/kg/injection, schedule: Q04DX003 (ip), vehicle: Klucel (hydroxypropylcellulose) (HPC)): 94 % of control

COc1cc2c(cc1OC)C1=CC(=O)N3CCCC34OS(=O)OC14CC2 (centres undefined)
T/C [14]: 110 % of control | T/C [15]: 103 % of control | T/C [17]: 101 % of control

O=C(Nc1cc(C(F)(F)F)ccc1Cl)c1ccccc1
T/C [14]: 94 % of control | T/C [15]: 91 % of control | T/C [17]: 94 % of control

O=C1c2ccccc2C(=O)c2c(NCCNCCO)ccc(O)c21
T/C (dose: 2.5 mg/kg/injection, schedule: Q01DX009 (ip), vehicle: suspension in saline): 110 % of control | T/C (dose: 5.0 mg/kg/injection, schedule: Q01DX009 (ip), vehicle: suspension in saline): 119 % of control | T/C (dose: 10.0 mg/kg/injection, schedule: Q01DX009 (ip), vehicle: suspension in saline): 119 % of control | T/C (dose: 20.0 mg/kg/injection, schedule: Q01DX009 (ip), vehicle: suspension in saline): 171 % of control | T/C (dose: 80.0 mg/kg/injection, schedule: Q01DX009 (ip), vehicle: suspension in saline): 181 % of control

O=C(CN1CC1)NCCCCCCCCNC(=O)CN1CC1
T/C (dose: 6.25 mg/kg/injection, schedule: Q01DX009 (ip), vehicle: Klucel (hydroxypropylcellulose) (HPC)): 124 % of control | T/C [16]: 93 % of control

CC(=O)NNC(=O)c1ccccn1
T/C [8]: 87 % of control | T/C (dose: 25.0 mg/kg/injection, schedule: Q01DX009 (ip), vehicle: water): 93 % of control and 116 % of control | T/C (dose: 50.0 mg/kg/injection, schedule: Q01DX009 (ip), vehicle: water): 110 % of control and 113 % of control | T/C (dose: 100.0 mg/kg/injection, schedule: Q01DX009 (ip), vehicle: water): 93 % of control and 100 % of control | T/C [3]: 89 % of control

Source: PubChem BioAssay AID192 (DTP/NCI, 2004)
